Data reported in patent publication US10988459B2 (priority 2015, dated 2021).

Biological target: human RIP1 kinase domain (2-375) (Homo sapiens (Human), UniProt Q13546)
Experiment: biochemical
Format: biochemical
Conditions: human RIP1 kinase domain (2-375), 50 uM ATP, 2 hours incubation, Transcreener ADP assay; read-out: RIP1 Ki
In short: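 Ki^app comes from Morrison tight-binding fits of fractional activity versus compound concentration. Activity was read as ADP production, via tracer displacement lowering fluorescence polarization (633 nm laser). Conditions: 2 h, 50 nM insect-cell-expressed enzyme, 50 uM ATP, 30 mM MgCl2, 1 mM DTT, 0.5% DMSO, pH 7.5 Hepes.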

Chain of human RIP1 kinase domain (2-375) (Q13546 2-375): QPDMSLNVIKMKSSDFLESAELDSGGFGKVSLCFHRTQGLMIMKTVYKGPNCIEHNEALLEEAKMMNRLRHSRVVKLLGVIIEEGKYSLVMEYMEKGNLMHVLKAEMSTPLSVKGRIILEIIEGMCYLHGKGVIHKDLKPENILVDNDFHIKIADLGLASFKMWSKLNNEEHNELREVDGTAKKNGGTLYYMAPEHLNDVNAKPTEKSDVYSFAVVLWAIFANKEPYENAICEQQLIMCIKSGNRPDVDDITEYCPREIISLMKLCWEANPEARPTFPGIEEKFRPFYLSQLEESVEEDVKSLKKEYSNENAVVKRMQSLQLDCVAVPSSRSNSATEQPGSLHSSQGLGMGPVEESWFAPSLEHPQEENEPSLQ

Compound	Ki [nM]
CN1C(=O)[C@@H](NC(=O)c2n[nH]c3c2C[C@@H](C(F)(F)F)CC3)COc2c1cnn2C [Example 188, (S)—N—((S)-1,4-dimethyl-5-oxo-4,5,6,7-tetrahydro-1H-pyrazolo[3,4-b][1,4]oxazepin-6-yl)-5-(trifluoromethyl)-4,5,6,7-tetrahydro-1H-indazole-3-carboxamide]	4500
CN1C(=O)[C@@H](NC(=O)c2n[nH]c3c2CC2(CC3)CC2(F)F)COc2ccccc21 (stereo partly drawn) [Example 189, 2,2-difluoro-N—((S)-5-methyl-4-oxo-2,3,4,5-tetrahydrobenzo[b][1,4]oxazepin-3-yl)-1′,4′,6′,7′-tetrahydrospiro[cyclopropane-1,5′-indazole]-3′-carboxamide]	260
CC1CCn2cnc(C(=O)N[C@H]3COc4ccccc4N(C)C3=O)c2C1 (stereo partly shown) [Example 190]	262
CN1C(=O)[C@@H](NC(=O)c2nnn3ccc(C(F)(F)F)cc23)COc2ccccc21 [Example 191, (S)—N-(5-methyl-4-oxo-2,3,4,5-tetrahydrobenzo[b][1,4]oxazepin-3-yl)-5-(trifluoromethyl)-[1,2,3]triazolo[1,5-a]pyridine-3-carboxamide]	22
CN1C(=O)[C@@H](NC(=O)c2nnn3c2CC(C(F)(F)F)CC3)COc2ccccc21 (stereo partly drawn) [Example 192, N—((S)-5-methyl-4-oxo-2,3,4,5-tetrahydrobenzo[b][1,4]oxazepin-3-yl)-5-(trifluoromethyl)-4,5,6,7-tetrahydro-[1,2,3]triazolo[1,5-a]pyridine-3-carboxamide]	105
CN1C(=O)[C@@H](NC(=O)c2ncn3ccc(C(F)(F)F)nc23)COc2ccccc21 [Example 193, (S)—N-(5-methyl-4-oxo-2,3,4,5-tetrahydrobenzo[b][1,4]oxazepin-3-yl)-2-(trifluoromethyl)imidazo[1,5-a]pyrimidine-8-carboxamide]	57.5
CCC1(C)Cc2c(C(=O)N[C@H]3COc4ccccc4N(C)C3=O)n[nH]c2CO1 (stereo partly drawn) [Example 194, 5-ethyl-5-methyl-N-((S)-5-methyl-4-oxo-2,3,4,5-tetrahydrobenzo[b][1,4]oxazepin-3-yl)-1,4,5,7-tetrahydropyrano[3,4-c]pyrazole-3-carboxamide]	167
CN1C(=O)C(NC(=O)c2ncn(Cc3ccccc3)n2)CCn2ccnc21 (stereo not shown) [Example 195, 1-benzyl-N-(9-methyl-8-oxo-6,7,8,9-tetrahydro-5H-imidazo[1,2-a][1,3]diazepin-7-yl)-1H-1,2,4-triazole-3-carboxamide]	123
CN1C(=O)C(NC(=O)c2cn(Cc3ccccc3)nn2)CCn2ccnc21 (stereo not shown) [Example 196, 1-benzyl-N-(9-methyl-8-oxo-6,7,8,9-tetrahydro-5H-imidazo[1,2-a][1,3]diazepin-7-yl)-1H-1,2,3-triazole-4-carboxamide]	341
CC(C)n1ncc2c1OC[C@H](NC(=O)c1nnc(Cc3ccccc3)[nH]1)C(=O)N2 [Example 197, (S)-5-benzyl-N-(1-isopropyl-5-oxo-4,5,6,7-tetrahydro-1H-pyrazolo [3,4-b][1,4]oxazepin-6-yl)-4H-1,2,4-triazole-3-carboxamide]	5100
O=C(NC1CCn2ncc3c2N(CCO3)C1=O)c1ncn(Cc2ccccc2)n1 (stereo not shown) [Example 198, 1-benzyl-N-(6-oxo-4,5,6,7,8,9-hexahydro-3-oxa-1,5a,9a-triazabenzo[cd]azulen-7-yl)-1H-1,2,4-triazole-3-carboxamide]	232
O=C(NC1CCn2ncc3c2N(CCO3)C1=O)c1nnc(Cc2ccccc2)[nH]1 (stereo not shown) [Example 199, 5-benzyl-N-(6-oxo-4,5,6,7,8,9-hexahydro-3-oxa-1,5a,9a-triazabenzo[cd]azulen-7-yl)-4H-1,2,4-triazole-3-carboxamide]	766
CN1C(=O)[C@@H](NC(=O)c2nnc3cnc(C(F)(F)F)cn23)COc2ccccc21 [Example 200, (S)—N-(5-methyl-4-oxo-2,3,4,5-tetrahydrobenzo[b][1,4]oxazepin-3-yl)-6-(trifluoromethyl)-[1,2,4]triazolo[4,3-a]pyrazine-3-carboxamide]	1700
CCC1(C)OCc2nnc(C(=O)N[C@H]3COc4ccccc4N(C)C3=O)cc21 (stereo partly drawn) [Example 201, 5-ethyl-5-methyl-N—((S)-5-methyl-4-oxo-2,3,4,5-tetrahydrobenzo[b][1,4]oxazepin-3-yl)-5,7-dihydrofuro[3,4-c]pyridazine-3-carboxamide]	411
CCn1ncc2cnc(C(=O)N[C@H]3COc4ccccc4N(C)C3=O)cc21 [Example 202, (S)-1-ethyl-N-(5-methyl-4-oxo-2,3,4,5-tetrahydrobenzo[b][1,4]oxazepin-3-yl)-1H-pyrazolo[4,3-c]pyridine-6-carboxamide]	57.6
CC(C)n1ncc2c1OC[C@H](NC(=O)c1ncn(Cc3ccccc3)n1)C(=O)N2 [Example 203, (S)-1-benzyl-N-(1-isopropyl-5-oxo-4,5,6,7-tetrahydro-1H-pyrazolo[3,4-b][1,4]oxazepin-6-yl)-1H-1,2,4-triazole-3-carboxamide]	912

Compound	Ki [nM]
CN1C(=O)C(NC(=O)c2ncn(Cc3ccccc3)n2)CCn2cncc21 (stereo not shown) [Example 204, 1-benzyl-N-(1-methyl-2-oxo-2,3,4,5-tetrahydro-1H-imidazo[1,5-a][1,3]diazepin-3-yl)-1H-1,2,4-triazole-3-carboxamide]	84.3
CN1C(=O)[C@@H](NC(=O)c2n[nH]c3c2CC(c2ccc(F)cc2)OC3)COc2ccccc21 (stereo partly drawn) [Example 205, 5-(4-fluorophenyl)-N—((S)-5-methyl-4-oxo-2,3,4,5-tetrahydrobenzo[b][1,4]oxazepin-3-yl)-1,4,5,7-tetrahydropyrano[3,4-c]pyrazole-3-carboxamide]	98.3
CN1C(=O)[C@@H](NC(=O)c2n[nH]c3c2CC(c2ccc(F)c(F)c2)OC3)COc2ccccc21 (stereo partly drawn) [Example 206, 5-(3,4-difluorophenyl)-N—((S)-5-methyl-4-oxo-2,3,4,5-tetrahydrobenzo[b][1,4]oxazepin-3-yl)-1,4,5,7-tetrahydropyrano[3,4-c]pyrazole-3-carboxamide]	131
CN1C(=O)[C@@H](NC(=O)c2n[nH]c3c2CC(c2ccc(F)cc2F)OC3)COc2ccccc21 (stereo partly drawn) [Example 207, 5-(2,4-difluorophenyl)-N—((S)-5-methyl-4-oxo-2,3,4,5-tetrahydrobenzo[b][1,4]oxazepin-3-yl)-1,4,5,7-tetrahydropyrano[3,4-c]pyrazole-3-carboxamide]	61.7
CN1C(=O)C(NC(=O)c2ncn(Cc3ccccc3)n2)CCn2nc(-c3ccccc3)cc21 (stereo not shown) [Example 208, 1-benzyl-N-(4-methyl-5-oxo-2-phenyl-5,6,7,8-tetrahydro-4H-pyrazolo[1,5-a][1,3]diazepin-6-yl)-1H-1,2,4-triazole-3-carboxamide]	120
CN1C(=O)C(NC(=O)c2n[nH]c(Cc3ccccc3)n2)CCn2nc(-c3ccccc3)cc21 (stereo not shown) [Example 209, 5-benzyl-N-(4-methyl-5-oxo-2-phenyl-5,6,7,8-tetrahydro-4H-pyrazolo[1,5-a][1,3]diazepin-6-yl)-1H-1,2,4-triazole-3-carboxamide]	75.6
CN1C(=O)[C@@H](NC(=O)c2n[nH]c3c2CC(CC(F)(F)F)OC3)COc2ccccc21 (stereo partly drawn) [Example 210, N—((S)-5-methyl-4-oxo-2,3,4,5-tetrahydrobenzo[b][1,4]oxazepin-3-yl)-5-(2,2,2-trifluoroethyl)-1,4,5,7-tetrahydropyrano[3,4-c]pyrazole-3-carboxamide]	193
CN1C(=O)[C@@H](NC(=O)c2n[nH]c3c2CC2(CCC2)OC3)COc2ccccc21 [Example 211, (S)—N-(5-methyl-4-oxo-2,3,4,5-tetrahydrobenzo[b][1,4]oxazepin-3-yl)-4′,7′-dihydro-1′H-spiro[cyclobutane-1,5′-pyrano[3,4-c]pyrazole]-3′-carboxamide]	156
CN1C(=O)[C@@H](NC(=O)c2n[nH]c3c2CC(C)(c2ccccc2)OC3)COc2ccccc21 (stereo partly drawn) [Example 212, 5-methyl-N—((S)-5-methyl-4-oxo-2,3,4,5-tetrahydrobenzo[b][1,4]oxazepin-3-yl)-5-phenyl-1,4,5,7-tetrahydropyrano[3,4-c]pyrazole-3-carboxamide]	573
CC(C)n1ncc2cnc(C(=O)N[C@H]3COc4ccccc4N(C)C3=O)cc21 [Example 213, (S)-1-isopropyl-N-(5-methyl-4-oxo-2,3,4,5-tetrahydrobenzo[b][1,4]oxazepin-3-yl)-1H-pyrazolo[4,3-c]pyridine-6-carboxamide]	12.3
Cc1ncn2c1N(C)C(=O)C(NC(=O)c1ncn(Cc3ccccc3)n1)CC2 (stereo not shown) [Example 215, 1-benzyl-N-(1,9-dimethyl-2-oxo-2,3,4,5-tetrahydro-1H-imidazo[1,5-a][1,3]diazepin-3-yl)-1H-1,2,4-triazole-3-carboxamide]	106
CN1C(=O)C(NC(=O)c2cn(Cc3ccccc3)nn2)CCn2nc(-c3ccccc3)cc21 (stereo not shown) [Example 216, 1-benzyl-N-(4-methyl-5-oxo-2-phenyl-5,6,7,8-tetrahydro-4H-pyrazolo[1,5-a][1,3]diazepin-6-yl)-1H-1,2,3-triazole-4-carboxamide]	97.2
CN1C(=O)[C@@H](NC(=O)c2ncc3c(n2)C(C)(C)OC3)COc2ccccc21 [Example 217, (S)-7,7-dimethyl-N-(5-methyl-4-oxo-2,3,4,5-tetrahydrobenzo[b][1,4]oxazepin-3-yl)-5,7-dihydrofuro[3,4-d]pyrimidine-2-carboxamide]	61.7
CN1C(=O)[C@@H](NC(=O)c2ncc3c(n2)C(C)(C)SC3)COc2ccccc21 [Example 218, (S)-7,7-dimethyl-N-(5-methyl-4-oxo-2,3,4,5-tetrahydrobenzo[b][1,4]oxazepin-3-yl)-5,7-dihydrothieno[3,4-d]pyrimidine-2-carboxamide]	25.4
Cc1cc2n(n1)CC[C@H](NC(=O)c1ncn(Cc3cccc(F)c3F)n1)C(=O)N2C [Example 219, (S)-1-(2,3-difluorobenzyl)-N-(2,4-dimethyl-5-oxo-5,6,7,8-tetrahydro-4H-pyrazolo[1,5-a][1,3]diazepin-6-yl)-1H-1,2,4-triazole-3-carboxamide]	29.7
